Patent US8119168B2, “Personal care compositions comprising a zinc containing material in an aqueous surfactant composition” (The Procter & Gamble Company, priority 2002, dated 2012)

Assay: Zincon metallochromic dye test for available Zn^2+ (visual color change orange to blue)
Format: physicochemical
Conditions: ZCM ~30 mg/10 ml water, pH 7-11, binary visual assessment
Description: Zinc-containing materials (ZCMs) differ with respect to how strongly the zinc ion (Zn^2+) is held by counterions in the crystal lattice. The benefits discussed herein depend upon having available Zn^2+. […] The response is a binary visual assessment of whether or not the color changes indicating zinc-binding.
The method is based on the commercial metallochromic dye zincon. Zincon changes from an orange color to blue upon binding zinc and provides the basis for detecting available Zn^2+:
The specific procedure involves making a stock solution of zincon in ethanol (˜50 mg/10 ml ethanol). The ZCM is then added to water (˜30 mg/10 ml water) and agitated (pH range should be 7-11). Three to four drops of zincon solution are then added to the ZCM in water, agitated and a visual assessment of color change made.

Compound	available Zn^2+ (zincon color change)
OCC(O)CO.[Zn] [zinc monoglycerolate]	have available zinc
CC(O)C(=O)[O-].CC(O)C(=O)[O-].[Zn+2] (stereo not drawn) [zinc lactate]	have available zinc
CC(=O)[O-].CC(=O)[O-].[Zn+2] [zinc acetate]	have available zinc
[Cl-].[Cl-].[Zn+2] [zinc chloride]	have available zinc
zinc stearate	have available zinc
O=C([O-])C(=O)[O-].[Zn+2] [zinc oxalate]	have available zinc
O=S(=O)([O-])[O-].[Zn+2] [zinc sulfate]	have available zinc
N=C(N)NCCC[C@H](N)C(=O)O.[Zn] [zinc arginine]	have available zinc
zinc histadine	have available zinc
zinc phytate	not having available Zn^2+
zinc hexaborate	have available zinc
O=C([O-])CN(CCN(CC(=O)[O-])CC(=O)[O-])CC(=O)[O-].[Na+].[Na+].[Zn+2] [zinc EDTA]	not having available Zn^2+
[OH-].[OH-].[Zn+2] [zinc hydroxide]	have available zinc
O=C([O-])CC(O)(CC(=O)[O-])C(=O)[O-].O=C([O-])CC(O)(CC(=O)[O-])C(=O)[O-].[Zn+2].[Zn+2].[Zn+2] [zinc citrate]	have available zinc
[O]=[Zn] [Zinc Oxide]	have available zinc

Assay: Relative zinc lability by xylenol orange (XO) color change, absorbance at 572 nm
Format: physicochemical
Conditions: 6% sodium lauryl sulfate
Procedure: Zinc lability is a measure of the chemical availability of zinc ion. […] The use of partially soluble forms of zinc salts and/or incorporation in a matrix with potential complexants generally lowers the zinc lability substantially below the defined 100% maximum.
Zinc lability is assessed by combining a diluted zinc-containing solution or dispersion with the metallochromic dye xylenol orange (XO) and measurement of the degree of color change under specified conditions. The magnitude of color formation is proportional to the level of labile zinc. The procedure developed has been optimized for aqueous surfactant formulations but may be adapted to other physical product forms as well.
A spectrophotometer is used to quantify the color change at 572 nm, the wavelength of optimum color change for XO. The spectrophotometer is set to zero absorbance at 572 nm utilizing a product control as close in composition to the test product except excluding the potentially labile form of zinc. The control and test products are then treated identically as follows. A 50 μl product sample is dispensed into a jar and 95 ml of deaerated, distilled water are added and stirred. 5 mL of a 23 mg/mL xylenol orange stock solution at pH 5.0 is pipetted into the sample jar; this is considered time 0. The pH is then adjusted to 5.50±0.01 using dilute HCl or NaOH. After 10.0 minutes, a portion of the sample is filtered (0.45μ) and the absorbance measured at 572 nm. The measured absorbance is then compared to a separately measured control to determine the relative zinc lability (zero TO 100%). The 100% lability control is prepared in a matrix similar to the test products but utilizing a soluble zinc material (such as zinc sulfate) incorporated at an equivalent level on a zinc basis. The absorbance of the 100% lability control is measured as above for the test materials.

Compound	Relative Zinc Lability (%) Simple Surfactant System Alone [%]
[O]=[Zn] [Zinc Oxide]	1.5
O=C([O-])[O-].O=C([O-])[O-].[OH-].[OH-].[OH-].[OH-].[OH-].[OH-].[Zn+2].[Zn+2].[Zn+2].[Zn+2].[Zn+2] [Hydrozincite]	37.0

Same assay, conditions: 6% sodium lauryl sulfate plus sodium bicarbonate at 0.2% level

Compound	Relative Zinc Lability (%) Simple Surfactant System Plus Sodium Bicarbonate [%]
[O]=[Zn] [Zinc Oxide]	33.2
